# According to patent publication US20100009949A1, “NOVEL METHOD” (BioXell S.p.A., priority 2001, published 2010):
# B1: KGF: Keratinocyte growth factor, stimulus, obtained from Prepro Tech EC (protein, UniProt P21781 32-194, looked up)
# Fibroblast growth factor 7: CNDMTPEQMATNVNCSSPERHTRSYDYMEGGDIRVRRLFCRTQWYLRIDKRGKVKGTQEMKNNYNIMEIRTVAVGIVAIKGVESEFYLAMNKEGKLYAKKECNEDCNFKELILENHYNTYASAKWTHNGGEMFVALNQKGIPVRGKKTKKEQKTAHFLPMAIT
# Experiments:
# prostate [1] = settings: phase II clinical trials for BPH, preliminary results (Montorsi, 2005); cited from earlier work
# DU145 cells [2] = test: Annexin-V binding assay (phosphatidylserine exposure, apoptosis); assay type: cell-based, human; settings: DU145, 8 hours, 1×10^−8 M; control 57±1.7; n=6, p=0.017
# Description: Annexin-V binding assay. Annexin-V binding assay was used to detect translocation of membrane phosphatidylserine (PS) from the inner to the outer side of the plasma membrane, since the exposure of PS is considered an early sign of apoptosis (Kagan et al. 2000). The assay was performed by using the “Annexin-V-Fluos staining Kit” (Roche). Before treatment, cells (1×10^6) were kept in serum-free medium for at least 24 h, then cells were incubated for 8 hours in the presence or absence of Compound 1 (1×10^−8 M), cells (1×10^6) were washed, trypsinized, centrifuged. After two washed in PBS, cells were resuspended in 100 ul of incubation buffer (supplied by manufacturer), 2 ul of Annexin-V-Fluos labeling reagent (Ann-V-F, Annexin-V conjugated to fluorescein, supplied at the 200× concentration by Roche) and 2 ul of propidium iodide solution (PI, 30 ug/ml in PBS) were added. After incubation (15 minutes in the dark at room temperature) samples were analyzed by flow cytometry. For each experimental set, two cell suspensions were prepared for instrumental setting and data analysis: 1) by omitting both Ann-V-F and PI staining (nonspecific fluorescence sample), and 2) by omitting only the PI staining (sample for compensation, see below). […] Fluorescence compensation was set by acquiring […] labeled with only Ann-V-F. For each sample 10.000 events were recorded at flow rate of 200/300 cells/s. […]
# DU145 cells [3] = test: Matrigel invasion assay (Boyden chambers), DU145; assay type: cell-based, human; settings: 1×10^−8 M, KGF 10 ng/ml, 24 h, no pre-incubation
# Description: Invasion assay: Invasion assays were performed as described previously (Bonaccorsi et al. 2000 and 2004a and 2004b) according to Albini et al. (1987) using the Boyden chambers equipped with 8 um porosity polyvinylpyrrolidone-free polycarbonate filters (VWR International, Milan, Italy). A thin layer of Matrigel solution (50 ug/ml) was overlaid on the upper surface of the filter and allowed to gel by incubating the filters at 37° C. for 30 min. Cell ability to invade the substrate was assessed by using some different stimuli: keratinocyte growth factor, KGF (10 ng/ml), in presence or in absence of the inhibitor, 1-alpha-fluoro-25-hydroxy-16,23E-diene-26,27-bishomo-20-epi-cholecalciferol (1×10^−8 M). These molecules were added to the bottom well of the Boyden chambers. 9.5×10^4 cells were then added to the top of the chambers and incubated for 24 h at 37° C. Migrated cells were quantitated by counting cells with a Zeiss microscope (Oberkochen, Germany) equipped with brightfield optics (40× magnification). Results are expressed as the percentage of number of migrated cells per high-power field respect to control.
# AKT = AKT serine phosphorylation (Western blot) in KGF-stimulated DU145 cells; assay type: cell-based, human; settings: DU145, 1×10^−8 M, KGF 10 ng/ml
# Description: (§1) Immunoprecipitation and Western blot analysis. Protein extraction and immunoprecipitation were performed as previously described (Bonaccorsi et al. 1997). Briefly, cells were scraped in PBS supplemented with 1 mM Na3VO4, centrifuged and resuspended in lysis buffer (20 mM Tris, pH 7.4, 150 mM NaCl, 0.25% NP-40, 1 mM Na3VO4, 1 mM phenylmethyl-sulfonyl fluoride (PMSF)). After protein measurement (Coomassie kit), aliquots of cell lysates containing equal amount of proteins (500 ug) were incubated for 1 hour with 30 ul of Protein A (or Protein G)-Sepharose for preclearing. Precleared lysates were then incubated for 1 hour using 5 ug of specific anti-KGFR antibodies on ice followed by overnight incubation at 4° C. with 30 ul of Protein A (or Protein G)-Sepharose. The immunobeads were washed three times in lysis buffer and then resuspended in 10 ul of 2× Laemmli's reducing sample buffer (62.5 mM Tris pH 6.8, 10% glycerol, 2% SDS, 2.5% pyronin and 200 mM dithiothreitol), boiled at 95° C. for 5 minutes and loaded onto 8% polyacrylamide-bisacrylamide gels. […]
# PC3 cells = test: Cell proliferation assay (cell counting), PC3; assay type: cell-based, human; settings: control 100±17
# Description: (§2) Cell proliferation assay: All proliferation tests were performed after 24 h of cell starvation in phenol red- and serum-free medium containing 0.1% BSA. After starvation, cells were incubated in the same medium as before, with or without specific stimuli. Thereafter, cells were trypsinized, and each experimental point was derived from counting in the hemocytometer and then averaging at least six different fields for each well as previously reported (Crescioli et al. 2003). Experiments were performed seeding 4×10^4 cells onto 12-well plates in growth medium and incubated for 48 h with: 1) increasing concentrations of 1-alpha-fluoro-25-hydroxy-16,23E-diene-26,27-bishomo-20-epi-cholecalciferol (1×10^−12, 1×10^−11, 1×10^−10, 1×10^−9, 1×10^−8 M) with or without fixed concentration of KGF (10 ng/ml) or fixed concentration of bFGF (10 ng/ml); 2) fixed concentration of LY 294002 (10 nM) with or without KGF (10 ng/ml). In the same experiment each experimental point was repeated in triplicate and experiments were performed at least three times. Cell growth results are expressed as the percentage of growth compared with their relative controls.
# prostate [4] = settings: intact and castrated, testosterone-replaced rats; Crescioli et al. 2004; cited from earlier work
# DU145 cells [5] = test: Cell proliferation assay (cell counting), DU145; assay type: cell-based, human
# Description: as §2
# Statistical analysis: All the data are shown as mean±SEM of the indicated number of experiments. Statistical analysis was performed with ANOVA and Student's T test for unpaired and, when applicable, for paired data. IC50 for dose response curves were calculated using the program ALLFIT.
# human BPH cells = settings: primary cultures of human BPH cells; Crescioli et al. 2004; cited from earlier work
# KGF receptor (KGFR) = test: KGF-induced KGFR autotransphosphorylation (immunoprecipitation, Western blot) in DU145 cells; assay type: cell-based, human
# Description: as §1
# PI3K = PI3K assay (immunokinase) after KGF stimulation of DU145 cells; assay type: cell-based, human; settings: DU145, 1×10^−8 M, KGF 10 ng/ml
# Description: PI3K assay: PI3K activity was evaluated in vitro assay as previously described (Luconi et al. 2004). Briefly, cells were stimulated with KGF (5 min) in the presence or absence of 1-alpha-fluoro-25-hydroxy-16,23E-diene-26,27-bishomo-20-epi-cholecalciferol, scraped in PBS supplemented with 1 mM Na3VO4, centrifuged and extracted with lysis buffer (20 mM Tris, pH 7.4, 137 mM NaCl, 1 mM CaCl2, 1 mM MgCl2, 1% NP-40, 1 mM Na3VO4, 1 mM PMSF). After measurement of proteins, the aliquots of cell extracts containing equivalent amount of proteins (500 ug) were incubated for 1 hour with 50 ul of Protein G-Sepharose for preclearing. Precleared lysates were then incubated with an antiphosphotyrosine PY20 antibody overnight at 4° C. with 50 ul of Protein G-Sepharose as described above. The Sepharose beads were washed two times with lysis buffer and twice with a 10 mM Tris-HCl (pH 7.4) containing 0.1 mM EGTA and 5 mM LiCl. After removal of the last wash, the beads were suspended in kinase buffer (10 mM Tris-HCl, 150 mM NaCl, 5 mM EDTA) containing 20 ug of L-alpha-phosphatidylinositol, 25 mM MgCl2 and 10 uCi of [gamma-^32P]ATP, and incubated for 20 min at room temperature. The reaction was stopped by the addition of 60 ul of HCl 6M and 160 ul of a mixture of chloroform and methanol (1:1). […] Quantifications of the bands was performed using a Kodak image analysis system.
molecule,measurement,setting,value
"C=C1/C(=C\C=C2/CCC[C@]3(C)C([C@@H](C)C/C=C/C(O)(CC)CC)=CC[C@@H]23)C[C@@H](O)C[C@@H]1F [Compound 1, 1-alpha-fluoro-25-hydroxy-16,23E-diene-26,27-bishomo-20-epi-cholecalciferol]",Prostate volume compared to placebo,prostate [1],significant reduction of prostate volume
same,percentage Annexin-V positive live cells,DU145 cells [2],62±1.2 percentage
same,Effect on KGF-stimulated Matrigel invasion of DU145 cells,DU145 cells [3],completely inhibited
same,Effect on KGF-stimulated AKT serine phosphorylation,AKT,inhibited KGF-stimulated AKT serine phosphorylation
same,"percentage number of cells, KGF + Compound 1","PC3 cells; PC3, KGF 10 ng/ml + Compound 1 1×10^−8 M",69.9±9.9 percentage
same,Effect on prostate growth in vivo,prostate [4],inhibition of prostate growth
same,"percentage number of cells, bFGF + Compound 1","DU145 cells [5]; DU145, bFGF 10 ng/ml + Compound 1 1×10^−8 M, control 100±8.6",74.1±9.2 percentage
same,IC50,"DU145 cells [5]; Homo sapiens, DU-145, basal, 48 h, cell counting, read-out: IC50 of inhibition of basal DU145 cell proliferation",0.0221 ± 0.0191 nM
same,Inhibition of KGF-stimulated DU145 proliferation,"DU145 cells [5]; KGF 10 ng/ml, 48 h, increasing concentrations of the analogue",completely and dose-dependently inhibits proliferation
same,Effect on prostate cell proliferation in vitro,human BPH cells,decrease prostate cell proliferation
same,Effect on KGF-induced autotransphosphorylation of KGFR,"KGF receptor (KGFR); DU145, 5 minutes pre-incubation, 1×10^−8 M, KGF 10 ng/ml",abrogated
same,Inhibitory effect on KGFR autophosphorylation after alpha-amanitin,"KGF receptor (KGFR); DU145, after 4 hours incubation with 4 ug/ml alpha-amanitin",still present
same,Effect on KGF-stimulated PI3K activity,PI3K,inhibited the stimulatory effect of KGF on PI3K activity
bFGF: growth factor used as stimulus of DU145 proliferation (10 ng/ml),"percentage number of cells, bFGF alone","DU145 cells [5]; DU145, bFGF 10 ng/ml, control 100±8.6",138±19.5 percentage
B1,"percentage number of cells, KGF alone","PC3 cells; PC3, KGF 10 ng/ml",121.3±13 percentage
